Experimental data reported in patent US12599676B2, “Cytotoxic imidazo[1,2-A]pyridine compounds and their use in therapy” (MyricX Pharma Limited, priority 2022, dated 2026).

Tests used:
JIMT-1 tumour cells = test: JIMT-1 breast cancer xenograft model; assay type: in vivo, NOD/SCID mice
Procedure: 80 mice were assigned to 8 treatment groups when tumour volumes averaged ˜160.66 mm^3 on Study Day 0. Dosing commenced the following day and all animals were dosed intravenously with ADC Example 3, sacituzumab govitecan or unconjugated sacituzumab. The study was terminated on the Study Day 60.

[1] = tested on: SU-DHL-10 cell line (human B cell lymphoma); test: Cell cytotoxicity in SU-DHL-10 cell line (CellTiter-Glo); assay type: cell-based; conditions: 72 h treatment, CTG
Procedure: Certain Example compounds of the invention and Comparator Compound 1 were tested in the SU-DHL-10 cell line (human B cell lymphoma). Compounds which show efficacy in this assay are expected to be useful as agents for treating or preventing hyperproliferative disorders such as cancer.
Cells were seeded in 96-well microplates and treated with compounds or cisplatin (as a positive control) at 9 increasing concentrations in technical triplicate. […] On day 1, 90 μL of various cell suspensions with the number of cells ranging from 5000-8000 cells/well were seeded into wells of a 96-well plate (Corning). The number of cells to be seeded was previously determined. • 2. All 96-wells plates with cells were placed in an incubator overnight at 37° C. with 5% CO2. • 3. On day 2, cells were observed under a microscope ensuring the cells treated with vehicle control were in good condition. • 4. A dilution series of the test compounds and cisplatin were prepared at 10× the final concentrations required. 10 μL/well of 10× compound solution was added to the corresponding plates. The final volume was 100 μL/well for all the plates. Final DMSO concentration was 0.1%. • 5. On day 5 (after 72 hours of incubation), 50 μL of CTG reagent was added to each well. • 6. Contents were mixed for 5 minutes on an orbital shaker to facilitate cell lysis. • 7. The plate was allowed to incubate at room temperature for 10 minutes to stabilize luminescent signals.
Luminescence was recorded using an EnVision Multi Label Reader. Data analysis was performed using GraphPad Prism 8.0.
To calculate IC50, a concentration-response curve was generated using a nonlinear regression model with a sigmoidal concentration response. The formula for calculating the % of viable cells was shown below, and the IC50s are automatically generated by GraphPad Prism 8.0.
(LumTest article=luminescence in test article treated well; LumNone treated=luminescence in vehicle treated well; LumMedium control=luminescence in a well containing only medium and no cells; LumNone treated-LumMedium control was set as 100%)

[2] = Caco-2 cell permeability assay; assay type: in vitro ADME; conditions: human, Caco-2, pH 7.4, basal to apical Papp, pH 7.4, 2.5 h
Procedure: (§1) Certain Example compounds and Comparative Example 1 were tested for their apical to basal (AB) and basal to apical (BA) permeability in Caco-2 cells.
(§2) Cell Culture: Caco-2 cells were grown for 10 days in 96-well plates in HBSS buffer containing 10 mM HEPES. Both the apical and basal pH was buffered at pH 7.4. The apical/basal volumes were 75 μl and 250 μl respectively. The incubation time was 2.5 h at 37° C. (without shaking) under 5% CO2 & 95% relative humidity.
(§3) Cell Seeding: Cells were seeded at a density of 18750 cells/well (membrane area=0.0804 cm^2) in a 96 well plate.
(§4) AB Assay: 75 μl of cell suspension was added at a density 2.5×10^5 cells/ml to the apical wells. 40 ml media was added to the feeder tray. The plates were placed in the incubator (37° C., 5% CO2 and controlled humidity). The Caco-2 cells were grown for 10 days with a media change on every alternate day.
(§5) BA Assay: 25 μl of cell suspension was added at a density of 7.5×10^5 cells/ml to the bottom side (keeping the plate upside down) of apical wells. The plate (upside down position) was placed in the incubator (37° C., 5% CO2 and 95% Relative humidity) for 2 h. The plate was turned right side up. 75 μl media was added to the apical wells and 40 ml media to the feeder tray.
(§6) Permeablity Assay: The apical and basal wells were washed with buffer (pH 7.4) and 250 μl buffer was added to the wells of the basal plate. 75 μl of compound solution (2 μM, dissolved in water with 1% DMSO) was transferred to the apical wells (n=2). The apical plate was placed onto the basal plate. The lid was placed on to prevent evaporation. The assembly was incubated at 37° C. for 2.5 h (without shaking) under 5% CO2 and 95% relative humidity. After incubation the apical plate was separated from the basal plate. Aliquots were taken out from the acceptor and donor wells, diluted and quantified using LC-MS/MS along with initial donor samples.
(§7) Membrane Integrity Test: Solution in the apical wells was discarded by inverting the plate and soaking onto tissue paper. 250 μl buffer (pH 7.4) was added to each well of basal plate and 75 μl of Lucifer Yellow (LY; 0.1 mg/ml) in buffer (pH 7.4) to the wells of apical plate. The apical plate was placed onto the basal plate and the lid used to prevent evaporation. The assembly was incubated at 37° C. for 1 h (without shaking) under 5% CO2 and 95% relative humidity. The apical plate was separated from the basal plate. Fluorescence (Ex: 432 nm, Em: 530 nm) of aliquots (100 ul) was measured from basal wells. Fluorescence of 100 μl buffer (pH 7.4) and 100 μl LY(0.1 mg/ml) was also measured. Wells having more than 1% fluorescence intensity with respect to 0.1 mg/ml LY were considered non-integrated membrane. Such wells, if any, were not considered for permeability calculation.
(§8) Calculation: Drug was detected and quantified by LC-MS/MS. Data generated took the form of an apparent permeability (Papp) value. Papp=[Va/(AreaxTime)]×(LC-MS Area of Acceptor sample×Sample dilution factor/LC-MS Area of Initial Donor). Va=Volume of Acceptor Well (in ml)=0.25, Vd=Volume of Donor Well (in ml)=0.075, Area=Surface area of the membrane (cm2)=0.0804, Time=Time of incubation (sec)=9000 Results: The results of the assay are shown in Table 3 below.

Caco-2 cells = test: Caco-2 cell permeability assay; assay type: in vitro ADME; conditions: apical to basal Papp, 2 μM, pH 7.4, 2.5 h
Procedure: as §1, §2, §3, §4, §5, §6, §7, §8

LNCaP tumour cells = test: LNCaP prostate cancer xenograft model; assay type: in vivo, NOD SCID mice; conditions: for Day 28 tumour volume (mm^3, mean ± SEM) / Tumour growth inhibition (TGI, %): IV, Q7D (×3); for Tumour growth inhibition (TGI, %): day 28
Source text: A total of 84 male NOD SCID mice aged 5-8 weeks and weighing 25-30 g were used for the study.

VcaP tumour cells = test: VCaP prostate cancer xenograft model; assay type: in vivo, CB17/SCID mice
Source text: All mice received two doses of test agent, on Study Day 1 and Study Day 8. The study was terminated on Study Day 30.

[3] = 2.5 mg/kg IV QW × 2 weeks (Group 5 also got ADC Example 3 5 mg/kg on Day 27)
[4] = 5 mg/kg IV QW × 2 weeks (Group 4 also got ADC Example 3 5 mg/kg on Day 27)

With sacituzumab govitecan the “tumour volume compared to Groups 2 and 3 (unconjugated sacituzumab)” value (JIMT-1 tumour cells; 2.5 mg/kg (Group 5)) was “no significant difference”, the “ΔTGI (Study Day 28)” value (JIMT-1 tumour cells; [3]) was 13.13% and the “tumour volume compared to unconjugated sacituzumab Group 2 (5 mg/kg) and Group 3 (2.5 mg/kg)” value (JIMT-1 tumour cells; 5 mg/kg (Group 4)) was “significant decrease”. The “ΔTGI (Study Day 28)” value (JIMT-1 tumour cells; [4]) was 23.39% and the “tumour volumes compared to vehicle alone (Group 1)” value (JIMT-1 tumour cells; all concentrations tested (ADC Example 3: 2.5, 5, 10 mg/kg; sacituzumab govitecan: 5 and 2.5 mg/kg)) was “significant decrease”.

In the case of sacituzumab, the “tumour volume compared to vehicle alone (Group 1)” value (JIMT-1 tumour cells; 2.5 mg/kg (Group 3), p=0.0586) is reported as “no significant difference”, the “ΔTGI (Study Day 28)” value (JIMT-1 tumour cells; [3]) is reported as 12.11% and the “tumour volume compared to vehicle alone (Group 1)” value (JIMT-1 tumour cells; 5 mg/kg (Group 2), p=0.0028) is reported as “significant decrease”. For the same molecule, the “ΔTGI (Study Day 28)” value (JIMT-1 tumour cells; [4]) was 14.44% and the “tumour volume, 5 mg/kg (Group 2) versus 2.5 mg/kg (Group 3)” value (JIMT-1 tumour cells; p=0.9837) was “no significant difference”.

For `Cc1c(CCOc2c(-c3ccc4ncc(CN(C)C)n4c3)ccc(F)c2F)c(C(O)C(C)(C)C)nn1C` (single isomer, unassigned) [Example 15, 1-(4-(2-(6-(3-((dimethylamino)methyl)imidazo[1,2-a]pyridin-6-yl)-2,3-difluorophenoxy)ethyl)-1,5-dimethyl-1H-pyrazol-3-yl)-2,2-dimethylpropan-1-ol], the IC50 [1] was 1.2 nM, the Papp B→A at 2.5 h, 2 μM [2] was 7.44 ×10⁻⁶ cm/s and the “Caco-2 A-B” value (Caco-2 cells) was 1.345 ×10⁻⁶ cm/s.

For ifinatamab, the “LNCaP tumour volume compared to the vehicle control” value (LNCaP tumour cells; 5 mg/kg) was “no significant effect”, the “Day 28 tumour volume (mm^3, mean ± SEM)” value (LNCaP tumour cells; 5 mg/kg) was 551.4 ± 73.1 mm^3 and the “Tumour growth inhibition (TGI, %)” value (LNCaP tumour cells; 5 mg/kg) was 30.6%. For the same molecule, the “LNCaP tumour volume compared to the vehicle control” value (LNCaP tumour cells; 10 mg/kg) was “no significant effect”, the “Day 28 tumour volume (mm^3, mean ± SEM)” value (LNCaP tumour cells; 10 mg/kg) was 666.56 ± 103.2 mm^3 and the “Tumour growth inhibition (TGI, %)” value (LNCaP tumour cells; 10 mg/kg) was 13.0%. For the same molecule, the “ΔTGI (Study Day 17)” value (VcaP tumour cells; 2.5 mg/kg IV QW × 2 weeks) was 8.47%, the “ΔTGI (Study Day 17)” value (VcaP tumour cells; 5 mg/kg IV QW × 2 weeks) was 12.44% and the “tumour volumes compared to vehicle alone (Group 1)” value (VcaP tumour cells; all concentrations tested (ADC Example 4: 2.5, 5, 10 mg/kg; unconjugated ifinatamab: 5 and 2.5 mg/kg)) was “no significant difference”.

B1: ifinatamab-DXd: ifinatamab-deruxtecan, comparator ADC in prostate xenograft models (conjugate, chains of the INN, looked up)
VH: QVQLVQSGAEVKKPGSSVKVSCKASGYTFTNYVMHWVRQAPGQGLEWMGYINPYNDDVKYNEKFKGRVTITADESTSTAYMELSSLRSEDTAVYYCARWGYYGSPLYYFDYWGQGTLVTVSS
VL: EIVLTQSPATLSLSPGERATLSCRASSRLIYMHWYQQKPGQAPRPLIYATSNLASGIPARFSGSGSGTDFTLTISSLEPEDFAVYYCQQWNSNPPTFGQGTKVEIK
modifications: deruxtecan payload
notes: ifinatamab-deruxtecan, comparator ADC in prostate xenograft models
For B1, the “LNCaP tumour volume compared to the vehicle control” value (LNCaP tumour cells; 5 mg/kg) was “slowed the growth of LNCaP tumours to a lesser extent”, the “Day 28 tumour volume (mm^3, mean ± SEM)” value (LNCaP tumour cells; 5 mg/kg) was 364.6 ± 51.7 mm^3 and the “Tumour growth inhibition (TGI, %)” value (LNCaP tumour cells; 5 mg/kg) was 58.8%. The “LNCaP tumour volume compared to the vehicle control” value (LNCaP tumour cells; 10 mg/kg) was “significantly reduced the mean volume”, the “Day 28 tumour volume (mm^3, mean ± SEM)” value (LNCaP tumour cells; 10 mg/kg) was 259.5 ± 50.3 mm^3 and the “Tumour growth inhibition (TGI, %)” value (LNCaP tumour cells; 10 mg/kg) was 75.0%. The “tumour volume compared to Groups 2, 3 and 4” value (VcaP tumour cells; 2.5 mg/kg (Group 5)) was “no significant difference”, the “tumour volume compared to vehicle alone (Group 1)” value (VcaP tumour cells; 2.5 mg/kg (Group 5)) was “no significant difference” and the “ΔTGI (Study Day 17)” value (VcaP tumour cells; 2.5 mg/kg IV QW × 2 weeks) was 5.24%. For the same molecule, the “tumour volume compared to unconjugated ifinatamab 5 mg/kg and 2.5 mg/kg” value (VcaP tumour cells; 5 mg/kg (Group 4)) was “significantly higher tumour volume”, the “tumour volume compared to vehicle alone (Group 1)” value (VcaP tumour cells; 5 mg/kg (Group 4)) was “significantly higher tumour volume” and the “ΔTGI (Study Day 17)” value (VcaP tumour cells; 5 mg/kg IV QW × 2 weeks) was 2.86%.
